# From patent publication US12522583B2, “Benzimidazole derivatives and aza-benzimidazole derivatives as Janus kinase 2 inhibitors and uses thereof” (Dana-Farber Cancer Institute, Inc., priority 2018, dated 2026)
# Assays:
# Assay in all cases: KINOMEscan
# Assay type in all cases: binding
# Details in all cases: read-out: percent control
# FLT3-autoinhibited = FLT3-autoinhibited (Homo sapiens (Human), UniProt P36888)
# Text: (§1) Example 2. In Vitro Kinase Selectivity Profiling of the Compounds of the Present Disclosure
# SYK = SYK (Homo sapiens (Human), UniProt P43405)
# Text: as §1
# ROCK1 = ROCK1 (Homo sapiens (Human), UniProt Q13464)
# Text: as §1
# FLT3(N841I) = FLT3(N841I) (Homo sapiens (Human), UniProt P36888, N841I)
# Text: as §1
# MAP3K2 = MAP3K2 (Homo sapiens (Human), UniProt Q9Y2U5)
# Text: as §1
# FAK = FAK (Homo sapiens (Human), UniProt Q05397)
# Text: as §1
# TRPM6 = TRPM6 (Homo sapiens (Human), UniProt Q9BX84)
# Text: as §1
# BLK = BLK (Homo sapiens (Human), UniProt P51451)
# Text: as §1
# NDR2 = NDR2 (Homo sapiens (Human), UniProt Q9Y2H1)
# Text: as §1
# EGFR(G719S) = EGFR(G719S) (Homo sapiens (Human), UniProt P00533, G719S)
# Text: as §1
# HIPK3 = HIPK3 (Homo sapiens (Human), UniProt Q9H422)
# Text: as §1
# MYLK2 = MYLK2 (Homo sapiens (Human), UniProt Q9H1R3)
# Text: as §1
# PRKD2 = PRKD2 (Homo sapiens (Human), UniProt Q9BZL6)
# Text: as §1
# CTK = CTK (Homo sapiens (Human), UniProt P42679)
# Text: as §1
# ASK2 = ASK2 (Homo sapiens (Human), UniProt O95382)
# Text: as §1
# CASK = CASK (Homo sapiens (Human), UniProt O14936)
# Text: as §1
# ARK5 = ARK5 (Homo sapiens (Human), UniProt O60285)
# Text: as §1
# TBK1 = TBK1 (Homo sapiens (Human), UniProt Q9UHD2)
# Text: as §1
# ALK = ALK (Homo sapiens (Human), UniProt Q9UM73)
# Text: as §1
# ERN1 = ERN1 (Homo sapiens (Human), UniProt O75460)
# Text: as §1
# PAK1 = PAK1 (Homo sapiens (Human), UniProt Q13153)
# Text: as §1
# MYO3B = MYO3B (Homo sapiens (Human), UniProt Q8WXR4)
# Text: as §1
# DYRK2 = DYRK2 (Homo sapiens (Human), UniProt Q92630)
# Text: as §1
# [1] = biological target: RSK3(Kin.Dom.2- C-terminal) (Homo sapiens (Human), UniProt Q15349)
# Text: as §1
# ACVR1 = ACVR1 (Homo sapiens (Human), UniProt Q04771)
# Text: as §1
# [2] = biological target: RSK3(Kin.Dom.1-N-terminal) (Homo sapiens (Human), UniProt Q15349)
# Text: as §1
# MARK3 = MARK3 (Homo sapiens (Human), UniProt P27448)
# Text: as §1
# TESK1 = TESK1 (Homo sapiens (Human), UniProt Q15569)
# Text: as §1
# [3] = biological target: ABL1(M351T)-phosphorylated (Homo sapiens (Human), UniProt P00519, M351T)
# Text: as §1
# TGFBR1 = TGFBR1 (Homo sapiens (Human), UniProt P36897)
# Text: as §1
# ERK2 = ERK2 (Homo sapiens (Human), UniProt P28482)
# Text: as §1
# CDKL1 = CDKL1 (Homo sapiens (Human), UniProt Q00532)
# Text: as §1
# MEK1 = MEK1 (Homo sapiens (Human), UniProt Q02750)
# Text: as §1
# CDK4 = CDK4 (Homo sapiens (Human), UniProt P11802)
# Text: as §1
# MTOR = MTOR (Homo sapiens (Human), UniProt P42345)
# Text: as §1
# MET(M1250T) = MET(M1250T) (Homo sapiens (Human), UniProt P08581, M1250T)
# Text: as §1
# [4] = biological target: ABL1(T315I)-nonphosphorylated (Homo sapiens (Human), UniProt P00519, T315I)
# Text: as §1
# [5] = biological target: ABL1(Q252H)-nonphosphorylated (Homo sapiens (Human), UniProt P00519, Q252H)
# Text: as §1
# FLT3 = FLT3 (Homo sapiens (Human), UniProt P36888)
# Text: as §1
# YSK1 = YSK1 (Homo sapiens (Human), UniProt O00506)
# Text: as §1
# ASK2, sequence (O95382 whole entry): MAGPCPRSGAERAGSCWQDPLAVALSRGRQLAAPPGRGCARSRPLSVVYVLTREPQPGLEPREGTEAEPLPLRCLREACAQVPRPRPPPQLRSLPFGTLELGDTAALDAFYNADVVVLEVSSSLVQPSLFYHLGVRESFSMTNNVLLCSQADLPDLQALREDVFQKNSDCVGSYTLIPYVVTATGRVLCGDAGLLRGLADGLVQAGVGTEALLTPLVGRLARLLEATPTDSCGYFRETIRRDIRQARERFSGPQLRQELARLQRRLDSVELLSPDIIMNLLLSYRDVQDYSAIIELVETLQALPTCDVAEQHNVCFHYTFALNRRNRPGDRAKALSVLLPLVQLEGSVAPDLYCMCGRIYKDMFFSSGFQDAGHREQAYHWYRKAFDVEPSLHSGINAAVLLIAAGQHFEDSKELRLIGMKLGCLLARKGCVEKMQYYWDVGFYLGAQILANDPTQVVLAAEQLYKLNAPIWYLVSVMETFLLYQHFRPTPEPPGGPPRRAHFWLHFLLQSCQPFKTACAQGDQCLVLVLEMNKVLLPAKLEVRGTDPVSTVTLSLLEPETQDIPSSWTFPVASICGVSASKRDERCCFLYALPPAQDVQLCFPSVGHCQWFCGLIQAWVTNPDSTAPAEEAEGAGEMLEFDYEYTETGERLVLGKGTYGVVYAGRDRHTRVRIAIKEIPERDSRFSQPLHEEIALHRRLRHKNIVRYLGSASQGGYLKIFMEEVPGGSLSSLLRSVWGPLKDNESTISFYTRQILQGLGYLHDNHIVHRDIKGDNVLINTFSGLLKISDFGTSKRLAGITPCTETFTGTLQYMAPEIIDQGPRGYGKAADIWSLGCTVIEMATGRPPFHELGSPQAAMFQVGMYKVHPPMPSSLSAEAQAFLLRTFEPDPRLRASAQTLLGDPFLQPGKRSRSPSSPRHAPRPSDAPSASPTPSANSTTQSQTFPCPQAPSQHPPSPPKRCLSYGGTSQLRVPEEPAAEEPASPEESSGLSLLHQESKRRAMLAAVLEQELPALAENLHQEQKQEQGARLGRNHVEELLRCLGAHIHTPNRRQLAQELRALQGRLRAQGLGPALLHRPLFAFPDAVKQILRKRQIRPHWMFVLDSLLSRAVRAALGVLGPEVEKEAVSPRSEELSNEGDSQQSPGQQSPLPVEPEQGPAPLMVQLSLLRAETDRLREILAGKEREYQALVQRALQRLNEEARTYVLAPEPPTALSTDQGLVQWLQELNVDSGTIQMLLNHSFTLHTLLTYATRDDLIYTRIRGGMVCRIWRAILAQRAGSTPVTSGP
# RSK3(Kin.Dom.1-N-terminal), sequence (Q15349 59-318 limits assumed): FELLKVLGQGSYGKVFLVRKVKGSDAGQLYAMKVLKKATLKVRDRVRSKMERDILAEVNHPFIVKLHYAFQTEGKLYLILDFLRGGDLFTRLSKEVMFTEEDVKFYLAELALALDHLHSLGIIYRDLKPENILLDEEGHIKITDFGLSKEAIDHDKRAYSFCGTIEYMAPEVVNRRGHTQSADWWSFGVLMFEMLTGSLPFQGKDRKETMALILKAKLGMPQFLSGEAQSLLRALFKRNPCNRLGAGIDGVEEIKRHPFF
# YSK1, sequence (O00506 whole entry): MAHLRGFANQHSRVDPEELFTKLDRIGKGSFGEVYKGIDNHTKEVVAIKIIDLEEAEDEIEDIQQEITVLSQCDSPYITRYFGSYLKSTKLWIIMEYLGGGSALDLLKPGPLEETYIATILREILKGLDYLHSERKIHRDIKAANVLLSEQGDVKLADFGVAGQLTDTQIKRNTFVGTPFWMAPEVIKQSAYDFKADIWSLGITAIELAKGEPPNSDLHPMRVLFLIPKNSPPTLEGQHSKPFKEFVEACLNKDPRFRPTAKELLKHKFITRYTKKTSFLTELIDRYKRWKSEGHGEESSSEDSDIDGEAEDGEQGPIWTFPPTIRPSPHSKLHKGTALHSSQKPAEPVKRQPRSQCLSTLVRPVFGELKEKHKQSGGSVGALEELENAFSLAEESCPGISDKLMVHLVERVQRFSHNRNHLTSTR
# EGFR(G719S), sequence (P00533 25-1210 G719S): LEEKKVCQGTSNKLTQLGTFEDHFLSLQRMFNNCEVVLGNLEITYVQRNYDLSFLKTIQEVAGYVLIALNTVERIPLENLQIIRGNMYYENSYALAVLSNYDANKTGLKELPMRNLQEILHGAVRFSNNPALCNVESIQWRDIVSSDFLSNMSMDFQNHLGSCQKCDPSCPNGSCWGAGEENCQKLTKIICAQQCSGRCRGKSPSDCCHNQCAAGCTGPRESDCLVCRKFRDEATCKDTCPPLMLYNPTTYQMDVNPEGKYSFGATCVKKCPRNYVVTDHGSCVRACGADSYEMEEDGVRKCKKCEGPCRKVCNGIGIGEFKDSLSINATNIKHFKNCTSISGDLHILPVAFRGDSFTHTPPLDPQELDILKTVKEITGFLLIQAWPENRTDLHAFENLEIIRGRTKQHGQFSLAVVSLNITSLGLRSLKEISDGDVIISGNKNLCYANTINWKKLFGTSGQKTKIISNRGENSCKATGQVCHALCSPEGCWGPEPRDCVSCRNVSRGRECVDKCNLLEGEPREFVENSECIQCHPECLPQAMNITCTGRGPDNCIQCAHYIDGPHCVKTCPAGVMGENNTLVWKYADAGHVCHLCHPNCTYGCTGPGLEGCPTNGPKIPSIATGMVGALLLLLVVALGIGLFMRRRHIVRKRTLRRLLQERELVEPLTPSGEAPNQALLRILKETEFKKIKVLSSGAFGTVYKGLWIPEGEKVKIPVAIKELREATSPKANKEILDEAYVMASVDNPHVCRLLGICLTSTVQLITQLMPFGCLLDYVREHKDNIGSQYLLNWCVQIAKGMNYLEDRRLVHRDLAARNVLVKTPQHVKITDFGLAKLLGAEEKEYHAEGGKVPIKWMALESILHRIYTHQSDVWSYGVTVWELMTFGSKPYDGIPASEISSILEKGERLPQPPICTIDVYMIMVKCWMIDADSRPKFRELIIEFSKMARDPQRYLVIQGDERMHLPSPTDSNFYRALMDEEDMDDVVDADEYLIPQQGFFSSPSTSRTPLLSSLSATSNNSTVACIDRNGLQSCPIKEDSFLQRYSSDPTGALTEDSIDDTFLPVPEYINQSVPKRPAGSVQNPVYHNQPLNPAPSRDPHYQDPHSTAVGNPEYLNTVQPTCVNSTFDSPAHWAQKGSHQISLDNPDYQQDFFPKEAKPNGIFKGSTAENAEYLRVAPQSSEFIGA
# PRKD2, sequence (Q9BZL6 whole entry): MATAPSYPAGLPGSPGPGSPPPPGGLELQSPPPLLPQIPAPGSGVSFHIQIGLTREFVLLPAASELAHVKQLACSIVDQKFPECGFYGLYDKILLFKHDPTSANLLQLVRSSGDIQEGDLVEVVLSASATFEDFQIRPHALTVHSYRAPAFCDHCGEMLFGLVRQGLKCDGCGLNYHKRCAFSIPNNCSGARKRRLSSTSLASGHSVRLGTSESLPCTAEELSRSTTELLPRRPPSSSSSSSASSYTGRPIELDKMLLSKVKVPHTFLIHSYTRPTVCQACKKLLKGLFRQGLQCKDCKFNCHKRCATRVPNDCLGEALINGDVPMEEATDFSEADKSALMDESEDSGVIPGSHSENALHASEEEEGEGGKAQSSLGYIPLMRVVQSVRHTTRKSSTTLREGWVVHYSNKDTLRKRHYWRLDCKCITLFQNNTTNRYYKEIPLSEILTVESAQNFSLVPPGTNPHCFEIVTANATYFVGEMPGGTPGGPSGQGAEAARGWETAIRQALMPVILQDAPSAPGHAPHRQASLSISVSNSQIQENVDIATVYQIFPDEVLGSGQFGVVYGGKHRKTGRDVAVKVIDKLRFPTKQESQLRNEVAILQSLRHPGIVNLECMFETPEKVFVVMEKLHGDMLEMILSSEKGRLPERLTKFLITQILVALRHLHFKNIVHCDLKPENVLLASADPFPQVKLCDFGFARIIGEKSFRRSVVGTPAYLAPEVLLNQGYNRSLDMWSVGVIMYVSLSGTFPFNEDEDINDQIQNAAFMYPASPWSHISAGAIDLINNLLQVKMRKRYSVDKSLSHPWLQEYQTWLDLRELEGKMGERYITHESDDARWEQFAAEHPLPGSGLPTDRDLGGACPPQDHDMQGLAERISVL
# ACVR1, sequence (Q04771 21-509): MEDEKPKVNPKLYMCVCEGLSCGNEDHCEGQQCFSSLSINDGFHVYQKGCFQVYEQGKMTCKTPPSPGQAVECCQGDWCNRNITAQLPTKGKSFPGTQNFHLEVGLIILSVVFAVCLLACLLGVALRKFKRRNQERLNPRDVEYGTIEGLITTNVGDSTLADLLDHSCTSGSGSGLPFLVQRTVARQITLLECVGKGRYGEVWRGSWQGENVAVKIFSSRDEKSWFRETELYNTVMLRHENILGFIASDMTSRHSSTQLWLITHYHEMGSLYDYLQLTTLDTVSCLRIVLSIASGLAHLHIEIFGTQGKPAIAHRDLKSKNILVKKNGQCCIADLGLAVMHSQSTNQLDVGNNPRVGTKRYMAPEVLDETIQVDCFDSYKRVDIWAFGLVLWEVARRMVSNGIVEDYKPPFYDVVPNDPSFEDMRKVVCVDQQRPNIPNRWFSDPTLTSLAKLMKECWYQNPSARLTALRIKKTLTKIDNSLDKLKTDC
# NDR2, sequence (Q9Y2H1 whole entry): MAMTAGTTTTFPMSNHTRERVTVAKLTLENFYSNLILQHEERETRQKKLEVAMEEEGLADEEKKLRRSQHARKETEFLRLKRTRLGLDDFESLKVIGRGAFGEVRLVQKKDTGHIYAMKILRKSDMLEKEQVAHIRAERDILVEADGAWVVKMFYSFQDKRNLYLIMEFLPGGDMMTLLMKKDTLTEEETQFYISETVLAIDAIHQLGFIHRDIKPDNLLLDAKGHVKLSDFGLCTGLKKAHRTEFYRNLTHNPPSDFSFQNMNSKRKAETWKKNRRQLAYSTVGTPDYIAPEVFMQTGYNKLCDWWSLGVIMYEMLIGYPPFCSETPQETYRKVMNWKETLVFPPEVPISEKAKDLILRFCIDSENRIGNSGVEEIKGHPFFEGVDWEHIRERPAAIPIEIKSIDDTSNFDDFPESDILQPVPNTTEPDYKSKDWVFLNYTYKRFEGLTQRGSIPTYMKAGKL
Structure (SMILES),remaining binding at 1 µM (FLT3-autoinhibited),remaining binding at 1 µM (SYK),remaining binding at 1 µM (ROCK1),remaining binding at 1 µM (FLT3(N841I)),remaining binding at 1 µM (MAP3K2),remaining binding at 1 µM (FAK),remaining binding at 1 µM (TRPM6),remaining binding at 1 µM (BLK),remaining binding at 1 µM (NDR2),remaining binding at 1 µM (EGFR(G719S)),remaining binding at 1 µM (HIPK3),remaining binding at 1 µM (MYLK2),remaining binding at 1 µM (PRKD2),remaining binding at 1 µM (CTK),remaining binding at 1 µM (ASK2),remaining binding at 1 µM (CASK),remaining binding at 1 µM (ARK5),remaining binding at 1 µM (TBK1),remaining binding at 1 µM (ALK),remaining binding at 1 µM (ERN1),also measured
CCN1CCN(Cc2ccc(Nc3nc4ccc(Oc5ccnc(NC(C)=O)c5)cc4n3C)cc2C(F)(F)F)CC1 [Compound I-2],100%,85%,100%,11%,21%,98%,79%,49%,62%,96%,85%,100%,92%,83%,97%,78%,100%,73%,76%,91%,remaining binding at 1 µM (PAK1): 88%; remaining binding at 1 µM (MYO3B): 87%; remaining binding at 1 µM (DYRK2): 83%; remaining binding at 1 µM [1]: 82%; remaining binding at 1 µM (ACVR1): 99%; remaining binding at 1 µM [2]: 70%; remaining binding at 1 µM (MARK3): 87%; remaining binding at 1 µM (TESK1): 67%; remaining binding at 1 µM [3]: 37%; remaining binding at 1 µM (TGFBR1): 100%; remaining binding at 1 µM (ERK2): 95%; remaining binding at 1 µM (CDKL1): 84%; remaining binding at 1 µM (MEK1): 94%; remaining binding at 1 µM (CDK4): 94%; remaining binding at 1 µM (MTOR): 100%; remaining binding at 1 µM (MET(M1250T)): 63%; remaining binding at 1 µM [4]: 46%; remaining binding at 1 µM [5]: 0%; remaining binding at 1 µM (FLT3): 15%; remaining binding at 1 µM (YSK1): 94%
"CCN1CCN(Cc2ccc(Nc3nc4ccc(Oc5ccnc(NC(C)=O)c5)c(C)c4n3C)cc2C(F)(F)F)CC1 [Compound I-6, N-(4-(2-(4-((4-ethylpiperazin-1-yl)methyl)-3-(trifluoromethyl)phenylamino)-1,7-dimethyl-1H-benzo[d]imidazol-6-yloxy)pyridin-2-yl)acetamide]",66%,92%,83%,14%,0.6%,94%,84%,17%,97%,100%,76%,92%,100%,90%,89%,87%,100%,100%,90%,97%,remaining binding at 1 µM (PAK1): 77%; remaining binding at 1 µM (MYO3B): 89%; remaining binding at 1 µM (DYRK2): 97%; remaining binding at 1 µM [1]: 95%; remaining binding at 1 µM (ACVR1): 100%; remaining binding at 1 µM [2]: 100%; remaining binding at 1 µM (MARK3): 86%; remaining binding at 1 µM (TESK1): 62%; remaining binding at 1 µM [3]: 27%; remaining binding at 1 µM (TGFBR1): 95%; remaining binding at 1 µM (ERK2): 100%; remaining binding at 1 µM (CDKL1): 87%; remaining binding at 1 µM (MEK1): 87%; remaining binding at 1 µM (CDK4): 92%; remaining binding at 1 µM (MTOR): 100%; remaining binding at 1 µM (MET(M1250T)): 33%; remaining binding at 1 µM [4]: 32%; remaining binding at 1 µM [5]: 1.9%; remaining binding at 1 µM (FLT3): 1%; remaining binding at 1 µM (YSK1): 65%
